Test results from patent US7563910B2, “Heterocyclic cannabinoid receptor antagonists” (Hoffmann-La Roche Inc., priority 2004, dated 2009).

Key:
[1] = molecular target: T1, human cannabis CB1 receptor (Homo sapiens, UniProt P21554); test: Affinity for cannabinoid CB1 receptors, [3H]-CP-55,940 radioligand binding on HEK cell membranes; conditions: affinity for the CB1 receptor
T1 construct: expressed in transfected cells; host or cells: human embryonic kidney (HEK) cells, transient, Semliki Forest Virus system; membrane preparation
T1 sequence (P21554 whole entry): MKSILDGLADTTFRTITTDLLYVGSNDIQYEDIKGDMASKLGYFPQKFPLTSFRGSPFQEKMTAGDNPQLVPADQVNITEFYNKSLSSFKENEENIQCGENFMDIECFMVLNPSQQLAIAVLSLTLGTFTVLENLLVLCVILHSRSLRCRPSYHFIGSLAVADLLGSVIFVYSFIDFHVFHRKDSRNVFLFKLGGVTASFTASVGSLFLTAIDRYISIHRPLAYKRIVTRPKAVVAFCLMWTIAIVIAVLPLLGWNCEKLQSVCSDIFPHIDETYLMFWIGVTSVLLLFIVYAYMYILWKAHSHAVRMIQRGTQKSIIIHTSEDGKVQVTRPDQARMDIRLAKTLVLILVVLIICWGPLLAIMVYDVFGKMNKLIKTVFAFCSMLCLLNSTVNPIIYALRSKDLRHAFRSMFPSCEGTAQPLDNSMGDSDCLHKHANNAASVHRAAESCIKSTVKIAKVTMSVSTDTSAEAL
Protocol: The affinity of the compounds of the invention for cannabinoid CB1 receptors was determined using membrane preparations of human embryonic kidney (HEK) cells in which the human cannabis CB1 receptor is transiently transfected using the Semliki Forest Virus system in conjunction with [3H]-CP-55,940 as radioligand. After incubation of a freshly prepared cell membrane preparation with the [3H]-ligand, with or without addition of compounds of the invention, separation of bound and free ligand was performed by filtration over glassfiber filters. Radioactivity on the filter was measured by liquid scintillation counting. The affinity of the compounds of the invention for cannabinoid CB2 receptors was determined using membrane preparations of human embryonic kidney (HEK) cells in which the human cannabis CB2 receptor is transiently transfected using the Semliki Forest virus system in conjunction with [3H]-CP-55,940 as radioligand. After incubation of a freshly prepared cell membrane preparation with the [3H]-ligand, with or without addition of compounds of the invention, separation of bound of bound and free ligand was performed by filtration over glassfiber filters. Radioactivity on the filter was measured by liquid scintillation counting. The cannabinoid CB1 antagonistic activity of compounds of the invention was determined by functional studies using CHO cells in which human cannabinoid CB1 receptors are stably expressed (see M. Rinaldi-Carmona et. al., J. Pharmacol. Exp. Ther. 278 (1996) 871). The stable expression of the human cannabinoid receptor in cell systems was first described in Nature 1990, 346, 561-564 (CB1) and Nature 1993, 365, 61-65 (CB2) respectively. Adenylyl cyclase was stimulated using forskolin and measured by quantifying the amount of accumulated cyclic AMP. […]
The compounds of formula (I) show an excellent affinity for the CB1 receptor, determined with the experimental conditions described in Devane et. al. Mol. Pharmacol. 34 (1988) 605-613. […]

[2] = wild-type versus CB1 receptor knockout mice; cited from earlier work
[3] = 10 and 20 mg daily, compared to placebo; cited from earlier work

Compound	IC50 [1] [nM]	food intake [2]	body weight [3]
Cc1c(C(=O)NC2CCCCC2)cc(-c2ccccc2OC(F)(F)F)n1CC1COCCO1 (racemic) [Example 10, (rac) 1-[1,4]Dioxan-2-ylmethyl-2-methyl-5-(2-trifluoromethoxy-phenyl)-1H-pyrrole-3-carboxylic acid cyclohexylamide]	76	–	–
Cc1c(C(=O)NN2CCCCC2)nc(-c2ccc(OC(F)(F)F)cc2)n1CC1CCCCO1 (centres unmarked) [Example 1, 5-Methyl-1-(tetrahydro-pyran-2-ylmethyl)-2-(4-trifluoromethoxy-phenyl)-1H-imidazole-4-carboxylic acid piperidin-1-ylamide]	120	–	–
Cc1c(C(=O)NC2CCCCC2)cc(-c2cc(C(F)(F)F)ccc2C(F)(F)F)n1C[C@H]1CCCO1 [Example 23, 5-(2,5-Bis-trifluoromethyl-phenyl)-2-methyl-1-[(R)-1-(tetrahydro-furan-2-yl)methyl]-1H-pyrrole-3-carboxylic acid cyclohexylamide]	8	–	–
Cc1c(C(=O)NN2CCCCC2)nn(-c2ccc(Cl)cc2Cl)c1-c1ccc(Cl)cc1 [SR 141716]	–	reduces food intake in wild-type but not knockout mice	significantly reduced body weight
